Measured values reported in patent publication US20070259856A1, “Method for Activating Trpv4 Channel Receptors by Agonists” (priority 2004, published 2007).

Tests used:
[1] = tested on: bovine articular cartilage explants; assay: IL-1 induced collagen degradation (hydroxyproline) in bovine articular cartilage explants; format: cell-based; conditions: 1 uM, IL-1 50 ng/ml, media from day 14-18
Method: IL-1 stimulates collagen degradation in bovine articular cartilage explants after extended (−2-3 weeks) exposure to IL-1. Collagen breakdown was evaluated by measuring the levels of hydroxyproline, a major component of hydrolyzed collagen fibrils, using a colorimetric assay that is understood in the art. Bovine articular cartilage was stimulated with IL-1 for 18 days, in the absence or presence of Formula Ib or Formula IId (both at 1 uM). Media was removed and replaced every 2-4 days with fresh IL-1 and compound through day 18. As has been shown previously, aggrecan degradation precedes collagen breakdown in IL-1-stimulated bovine cartilage explants. Once aggrecan depletion had been achieved by day 10, media were analyzed for collagen breakdown using the hydroxyproline assay.

[2] = tested on: nitric oxide; assay: IL-1 induced nitric oxide production, bovine articular chondrocytes in alginate beads (Greiss reaction); format: cell-based; conditions: IL-1 10 ng/mL
Method: Nitric oxide (NO) is a free radical that is believed to contribute to the tissue destruction in osteoarthritis. While having direct effects on cartilage matrix damage, NO can also contribute by activating latent proteases which leads to increased tissue destruction. To evaluate the effect of TRPV4 channel receptor agonists on NO production, bovine articular chondrocytes were embedded in alginate beads as described in Hauselmann, et al. (1992) Matrix 12: 116-129, and NO levels were determined in the conditioned media by Greiss reaction (Badger A M, et al. (1998) J. Immunol. 161: 467-473), following stimulation by IL-1, in the absence or presence of TRPV4 channel receptor agonist.

[3] = tested on: MMP-3; assay: IL-1 induced MMP-3 production in human chondrocytes; format: cell-based; conditions: IL-1 10 ng/mL, 24 hours
Method: (§1) Human chondrocytes were exposed to L-1 (10 ng/mL) to induce MMP-3 and MMP-13 production. Increased production of MMP-3 and MMP-13 was verified by both Northern blot (mRNA) and ELISA assay (protein). Cells were exposed to Formula IIb at concentrations ranging from 0.1 μM to 10 μM. […] TRPV4 channel receptor agonist inhibits IL-1-induced MMP-3 and MMP-13 production.

[4] = tested on: MMP-13; assay: IL-1 induced MMP-13 production in human chondrocytes; format: cell-based; conditions: IL-1 10 ng/mL, 24 hours
Method: as §1

[5] = tested on: aggrecanase; assay: IL-1 induced aggrecanase production, chondrocyte-based aggrecanase peptide cleavage assay; format: cell-based, bovine; conditions: IL-1 3.0 ng/mL; for Aggrecanase Production (Mean ± SEM OD 450 nm): 24 hour
Description: Aggrecanases (ADAMTSs), in conjunction with MMPs, degrade aggrecan, one of the major matrix components in articular cartilage. […] 2003; 48(1): 119-133].

[6] = tested on: proteoglycan synthesis; assay: Proteoglycan synthesis ([35S] incorporation), bovine articular chondrocytes in alginate beads; format: cell-based; conditions: IL-1 10 ng/mL
Description: Although cartilage degradation is the hallmark of osteoarthritis, there is also a reduction in the ability of chondrocytes to resynthesize damaged matrix. It has been observed that cytokines, including IL-1, cause a significant reduction in collagen and proteoglycan (PG) synthesis. The effect on matrix synthesis, combined with the stimulation of matrix breakdown by these cytokines, leads to an overall net loss of cartilage matrix. The effects of TRPV4 channel receptor agonists on the synthesis of proteoglycans was measured by [^35S] incorporation in bovine articular chondrocytes embedded in alginate beads. IL-1 caused an inhibition of [^35S] incorporation into large molecular weight proteoglycan monomers, and Formula IIb caused a concentration-dependent reversal of the IL1-mediated inhibition of PG synthesis as shown in Table 10.

[7] = target: T1, ADAMTS-4 (aggrecanase-1) (Homo sapiens, UniProt O75173); assay: Cleavage of the peptide substrate by soluble ADAMTS-4; format: biochemical
T1 sequence (O75173 213-837): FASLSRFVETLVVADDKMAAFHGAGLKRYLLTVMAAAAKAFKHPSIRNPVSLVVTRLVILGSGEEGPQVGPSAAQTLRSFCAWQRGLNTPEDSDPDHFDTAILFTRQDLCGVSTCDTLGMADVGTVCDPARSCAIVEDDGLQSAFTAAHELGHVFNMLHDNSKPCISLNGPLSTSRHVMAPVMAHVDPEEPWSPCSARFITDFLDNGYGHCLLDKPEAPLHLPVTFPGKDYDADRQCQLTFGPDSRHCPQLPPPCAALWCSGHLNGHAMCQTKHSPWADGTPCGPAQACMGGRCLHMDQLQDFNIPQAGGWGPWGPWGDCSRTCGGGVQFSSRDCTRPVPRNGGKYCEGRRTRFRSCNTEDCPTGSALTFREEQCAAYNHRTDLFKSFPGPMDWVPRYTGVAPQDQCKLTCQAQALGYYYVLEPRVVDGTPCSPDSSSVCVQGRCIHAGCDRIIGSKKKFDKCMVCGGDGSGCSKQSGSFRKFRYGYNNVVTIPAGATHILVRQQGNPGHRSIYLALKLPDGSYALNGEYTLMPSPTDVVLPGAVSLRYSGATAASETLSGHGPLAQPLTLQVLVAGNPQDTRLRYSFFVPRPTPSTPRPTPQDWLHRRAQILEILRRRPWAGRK

Q: What does the source list for `CC(C)C[C@H](NC(=O)c1cc2ccccc2s1)C(=O)N[C@@H]1CCCN(S(=O)(=O)c2ccc(F)cc2)CC1=O` [Formula IIb, N-{(1S)-1-[({(4R)-1-[(4-fluorophenyl)sulfonyl]-3-oxohexahydro-1H-azepin-4-yl}amino)carbonyl]-3-methylbutyl}-1-benzothiophene-2-carboxamide]?
A: Hydroxyproline Mean ± SEM [1]: 16 ± 6 µg; inhibition at 1 µM ([1]; Bos taurus, 336 h): 81%; NO levels Mean ± SEM ([2]; 0.3 μM): 17 ± 1 µM; NO levels Mean ± SEM ([2]; 1.0 μM): 6 ± 1 µM; NO levels Mean ± SEM ([2]; 3.0 μM): 2 ± 0 µM; inhibition at 0.3 µM ([2]; Bos taurus, Chondrocyte, 0.3 μM, read-out: % inhibition of NO): 38%; inhibition at 1 µM ([2]; Bos taurus, Chondrocyte, 1.0 μM, read-out: % inhibition of NO): 81%; inhibition at 3 µM ([2]; Bos taurus, Chondrocyte, 3.0 μM, read-out: % inhibition of NO): 96%; MMP-3 mRNA expression Mean ([3]; 0.1 μM): 0.92 Fraction of IL-1; MMP-3 mRNA expression Mean ([3]; 0.3 μM): 0.91 Fraction of IL-1; MMP-3 mRNA expression Mean ([3]; 1.0 μM): 0.88 Fraction of IL-1; MMP-3 mRNA expression Mean ([3]; 3.0 μM): 0.68 Fraction of IL-1; MMP-3 mRNA expression Mean ([3]; 10.00 μM): 0.43 Fraction of IL-1; MMP-13 mRNA expression Mean ([4]; 0.1 μM): 0.89 Fraction of IL-1; MMP-13 mRNA expression Mean ([4]; 0.3 μM): 0.87 Fraction of IL-1; MMP-13 mRNA expression Mean ([4]; 1.0 μM): 0.79 Fraction of IL-1; MMP-13 mRNA expression Mean ([4]; 3.0 μM): 0.29 Fraction of IL-1; MMP-13 mRNA expression Mean ([4]; 10.00 μM): 0.09 Fraction of IL-1; Aggrecanase Production (Mean ± SEM OD 450 nm) ([5]; 0.03 μM): 2.018 ± 0.044 OD 450 nm; Aggrecanase Production (Mean ± SEM OD 450 nm) ([5]; 0.10 μM): 1.669 ± 0.029 OD 450 nm; Aggrecanase Production (Mean ± SEM OD 450 nm) ([5]; 0.30 μM): 1.139 ± 0.032 OD 450 nm; Aggrecanase Production (Mean ± SEM OD 450 nm) ([5]; 1.00 μM): 0.851 ± 0.024 OD 450 nm; inhibition at 0.03 µM ([5]; Bos taurus, 0.03 μM): 11%; inhibition at 0.1 µM ([5]; Bos taurus, 0.10 μM): 33%; inhibition at 0.3 µM ([5]; Bos taurus, 0.30 μM): 65%; inhibition at 1 µM ([5]; Bos taurus, 1.00 μM): 83%; % IL-1 reversal ([6]; 0.3 uM): 3%; PG synthesis Mean ± SEM ([6]; 0.3 uM): 878 ± 48 cpm/bead; % IL-1 reversal ([6]; 1.0 uM): 15%; PG synthesis Mean ± SEM ([6]; 1.0 uM): 1066 ± 69 cpm/bead; % IL-1 reversal ([6]; 3.0 uM): 44%; PG synthesis Mean ± SEM ([6]; 3.0 uM): 1530 ± 73 cpm/bead; effect on cleavage of the peptide substrate by soluble ADAMTS-4 [7]: no effect
